Laboratory results taken from patent US8410168B2, “Methods and compositions for treating ophthalmic conditions with retinyl derivatives” (Acucela, Inc., priority 2004, dated 2013).

What was measured:
RBP = RBP (Homo sapiens, UniProt P02753); assay: Fluorescence quenching study of MPR binding to RBP
Experimental: Apo-RBP at 0.5 μM was incubated with 0, 0.25, 0.5, 1 and 2 μM of MPR in PBS at room temperature for 1 hour, respectively. As controls, the same concentration of Apo-RBP was also incubated with 1 μM of HPR or 1 μM of atROL. All mixtures contained 0.2% Ethanol (v/v). The emission spectra were measured between 290 nm to 550 nm with excitation wavelength at 280 nm and 3 nm bandpass.

TTR binding to RBP = TTR binding to RBP (Homo sapiens, UniProt P02753); assay: Size exclusion study of TTR binding to RBP; conditions: 10 μM RBP, 50 μM MPR, 10 μM TTR
Experimental: Apo-RBP at 10 μM was incubated with 50 μM of MPR in PBS at room temperature for 1 hour. 10 μM of TTR was then added to the solution, and the mixture was incubated for another hour at room temperature. […] of the sample mixtures with and without TTR addition were analyzed by BioRad Bio-Sil SEC 125 Gel Filtration Column (300×7.8 mm). In control experiments, atROL-RBP and atROL-RBP-TTR mixture were analyzed in the same manner.

ABCA4−/− mice = assay: HPR drug holiday after 28 days of treatment; assay type: in vivo, mouse; conditions: 28-day drug holiday
Experimental: HPR (10 mg/kg in DMSO) was administered to ABCA4−/− mice daily for a period of 28 days. Control ABCA4−/− mice received only DMSO for the same period. […] Importantly, the observed reductions in lipofuscin autofluorescence persist long after cessation of HPR therapy. HPR (10 mg/kg), or DMSO, administration was discontinued following 28 days of treatment and re-evaluated A2E and precursor levels after 2 weeks and after 4 weeks.
We examined eyecup extracts by HPLC and employed detection by absorbance and fluorimetry. Identity of the indicated peaks was confirmed by on-line spectral analysis and by co-elution with authentic standards. […] Further, the A2E and precursor (A2PE-H2 and A2PE) levels after a […] or 28-day drug holiday remained at or near the levels immediately following 28 days of treatment (i.e., ca. 50% reduction relative to control), although after the 28-day drug holiday, the amount of A2E and precursor (A2PE-H2 and A2PE) had increased by a few percentage points relative to the 12-day drug holiday levels. […] It is clear that peak fluorescence tracks with the abundance of A2E, A2PE and A2PE-H2.
This effect cannot be attributed to long-term reductions in serum retinol as serum retinol had returned to baseline 48 hours following the last HPR dose. […] Furthermore, HPR reduces serum retinol levels, which leads to a reduction in the level of retinol in the eyes of treated animals. Once the level of retinol has been reduced in the eye, there is a time lag in the subsequent increase in retinol levels in the eye. Alone or in combination, the production of A2E, A2PE and A2PE-H2 in the eye remains low despite the absence of HPR in the serum or the eye.

CRALBP [1] = molecular target: T1, CRALBP (Homo sapiens, UniProt P12271); assay: Fluorescence quenching study of binding to CRALBP
T1 construct: made in house
Experimental: Apo-CRALBP at 0.5 μM was incubated with 1 μM of 11-cis Retinal (11cRAL), all-trans retinal (atRAL) or N-4-hydroxyphenyl retinamide (HPR) in PBS at room temperature for 1 hour. As a control, same volume of DMSO was added to the Apo-CRABLP solution. The emission spectra were measured between 290 nm to 500 nm with excitation wavelength at 280 nm and 2 nm bandpass (See FIG. 7).
Quenching of CRALBP protein fluorescence with 11-cis retinal (11cRAL). The fluorescence emission of recombinant apo-CRALBP (0.5 μM) was measured using 280 nm excitation (“no 11cRAL”).
Quenching of CRALBP protein fluorescence with HPR. The data shown were obtained using an experimental design identical to that described above. The fluorescence emission of recombinant apo-CRALBP was measured using 280 nm excitation (“no HPR”).
We performed an analysis of the dissociation constant (KD) for 11cRAL and HPR binding to apo-CRALBP (see FIG. 15). […] This calculation is based upon the ligand concentration necessary to fully quench the protein fluorescence. The data reveal that both 11cRAL and HPR quench apo-CRALBP fluorescence maximally at ˜1.5 μM. Thus, although apo-CRALBP is described as an 11 cis-specific retinoid binding protein, it appears to bind HPR as well.

CRALBP [2] = molecular target: T1, CRALBP; assay: Size exclusion chromatography study of binding to CRALBP; conditions: 4 μM apo-CRALBP, 8 μM ligand
Experimental: Apo-CRALBP at 4 μM was incubated with 8 μM of 11cRAL, atRAL or HPR in PBS at room temperature for 1 hour. In control experiment, equivalent volume of DMSO was added to the CRALBP solution. 50 μl of each sample mixture was analyzed by BioRad Bio-Sil SEC125 Gel Filtration Column (300×7.8 mm).

apo-CRALBP = molecular target: T2, apo-CRALBP (Homo sapiens, UniProt P12271); assay: Ni+ affinity column and spectroscopic analysis of binding to CRALBP; conditions: 10 μM apo-CRALBP, 20 μM ligand
T2 construct: made in house
Experimental: In order to confirm data obtained during fluorescence analysis of HPR binding to CRALBP, a second analysis was performed using affinity chromatography and spectroscopic analysis. The recombinant apo-CRALBP was constructed with a histidine tag which is utilized to purify the protein on a Ni+ affinity column following expression cloning. Here, we utilized this feature of apo-CRALBP to specifically “trap” the protein and any protein-ligand species for spectroscopic analysis. Two binding mixtures were prepared containing apo-CRALBP (10 μM) and either 11cRAL (20 μM) or HPR (20 μM). In control experiments for the analysis of non-specific ligand binding onto the affinity matrix, we prepared two additional mixtures containing only 11cRAL (20 μM) or HPR (20 μM) in binding buffer. The binding mixtures were passed through separate Ni+ affinity columns and the columns were washed extensively to elute unbound protein and ligand. Following the addition of elution buffer, the eluted fractions were analyzed by spectroscopy. […] Instead, two absorption maxima are seen: one at 280 nm and a second at 360 nm, which is attributable to the absorption of HPR (see FIG. 14).

T1 sequence (P12271 whole entry, species assumed): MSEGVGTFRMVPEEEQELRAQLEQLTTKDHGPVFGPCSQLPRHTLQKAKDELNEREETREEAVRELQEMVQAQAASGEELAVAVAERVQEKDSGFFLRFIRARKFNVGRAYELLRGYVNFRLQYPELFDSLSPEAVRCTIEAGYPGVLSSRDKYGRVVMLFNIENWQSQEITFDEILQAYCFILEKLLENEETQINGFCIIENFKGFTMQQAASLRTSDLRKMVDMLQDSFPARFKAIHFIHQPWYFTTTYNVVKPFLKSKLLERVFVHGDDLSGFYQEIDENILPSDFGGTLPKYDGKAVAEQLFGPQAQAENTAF
T2 sequence (P12271 whole entry, species assumed): as above

For `COc1ccc(NC(=O)\C=C(C)/C=C/C=C(C)\C=C\C2=C(C)CCCC2(C)C)cc1` (stereo in doubt) [MPR, N-(4-methoxyphenyl)retinamide], the “quenching of RBP fluorescence” value (RBP; 0.5 μM apo-RBP, 0-2 μM MPR) was “concentration-dependent quenching”, the “concentration at which quenching of RBP fluorescence saturated” value (RBP; 0.5 μM of RBP) was 1 µM and the “degree of RBP fluorescence quenching compared with other ligands” value (RBP; 1 μM controls) was “smaller than those by atROL and HPR”. For the same compound, the “binding of ligand-RBP to TTR” value (TTR binding to RBP) was “did not bind to TTR” and the “detection in the eyes after drug holiday” value (ABCA4−/− mice) was “unable to detect”.

In the case of `CC1=C(/C=C/C(C)=C/C=C/C(C)=C/C=O)C(C)(C)CCC1` [11cRAL, 11-cis retinal], the “concentration of maximal quenching of apo-CRALBP fluorescence” value (CRALBP [1]) is reported as roughly 1.5 µM, the “quenching of CRALBP fluorescence emission” value (CRALBP [1]; 0.5 μM apo-CRALBP, 1 μM ligand, 1 hour, vs DMSO) is reported as “highest degree of quenching” and the “concentration dependence of CRALBP protein fluorescence quenching” value (CRALBP [1]; 0.5 μM recombinant apo-CRALBP, 280 nm excitation) is reported as “concentration dependent manner”. For the same compound, the Kd (CRALBP [1]; transformation of fluorescence quenching data, read-out: dissociation constant (KD) for binding to apo-CRALBP) was roughly 0.03 µM, the “ligand bound to CRALBP (monomer elution peak absorbance)” value (CRALBP [2]) was “a majority of the CRALBP is bound with ligand” and the “binding to apo-CRALBP by absorption spectra of eluted fraction” value (apo-CRALBP) was “bound to CRALBP”.

For `CC1=C(/C=C/C(C)=C/C=C/C(C)=C/C=O)C(C)(C)CCC1` [atRAL, all-trans retinal], the “ligand bound to CRALBP (monomer elution peak absorbance)” value (CRALBP [2]) was “Less than half of the atRAL is bound to CRALBP”.

In the case of `CC1=C(/C=C/C(C)=C/C=C/C(C)=C/CO)C(C)(C)CCC1` [atROL, all-trans retinol], the “binding of ligand-RBP to TTR” value (TTR binding to RBP) is reported as “binds to TTR”.
